The structures appear in SMILES notation.

For one test, the system named is Lassa virus. Nature of the test: Antiviral activity against LASV infected in human A549 cells. The following applies: Mammarenavirus lassaense, A549; read-out: IC50. Format: functional, organism-based, Mammarenavirus lassaense.
As to `CCC1CN(C(=O)c2cc3ccccc3[nH]2)CC(=O)N1Cc1cccc(C(F)(F)F)c1` (configuration not stated), the IC50 amounted to 2400 nM.
On the same count and under the same terms, the value for `COc1ccc(CN2C(=O)CN(C(=O)c3cc4ccccc4s3)CC2CCc2ccccc2)cc1` (configuration not stated) was 500 nM.
The same measure, in the same setting: the same measure for `COc1ccc(CN2C(=O)CN(C(=O)c3cc4ccccc4o3)CC2CCc2ccccc2)cc1` (configuration not stated): 1000 nM; for `COc1ccc(CN2C(=O)CN(C(=O)c3cc4ccccc4[nH]3)CC2Cc2ccccc2)cc1` (configuration not stated): 1200 nM.
Same read-out and setting: the same measure for `COc1ccc(CN2C(=O)CN(C(=O)c3cc4ccccc4[nH]3)CC2CCc2ccccc2)cc1` (configuration not stated): 1700 nM; for `COc1ccc(CN2C(=O)CN(C(=O)c3cc4ccccc4o3)CC2Cc2ccccc2)cc1` (configuration not stated): 600 nM; for `Cc1ccc(CN2C(=O)CN(Cc3cc4ccccc4o3)C[C@@H]2Cc2ccccc2)cc1`: 10000 nM.
As for `Cc1ccc(CN2C(=O)CN(C(=O)c3cc4ccccc4o3)CC2Cc2ccccc2)cc1` (racemic), the IC50 came to 800 nM.
Same read-out and setting: the same measure for `Cc1ccc(CN2C(=O)CN(C(=O)c3cc4ccccc4o3)C[C@H]2Cc2ccccc2)cc1`: 3000 nM; for `O=C(c1cc2ccccc2o1)N1CC(=O)N(Cc2cccc(C(F)(F)F)c2)C(Cc2ccccc2)C1` (configuration not stated): 1800 nM.
Same read-out and setting: the same measure for `CCC1CN(C(=O)c2cc3ccccc3o2)CC(=O)N1Cc1cccc(C(F)(F)F)c1` (configuration not stated): 1600 nM.
The same measure, in the same setting: the same measure for `Cc1ccc(CN2C(=O)CN(C(=O)c3ccc(C)cc3)CC2CCc2ccccc2)cc1` (configuration not stated): 1200 nM.
Consider `COc1ccc(C(=O)N2CC(=O)N(Cc3ccc(C)cc3)C(CCc3ccccc3)C2)cc1` (configuration not stated), for which the IC50 stood at 400 nM.
Consider `Cc1ccc(CN2CCN(C(=O)c3cc4ccccc4o3)C[C@@H]2Cc2ccccc2)cc1`, for which the IC50 is 3100 nM.
Still for that read-out and setting: the value for `O=C(c1cc2ccccc2o1)N1CC(=O)N(Cc2ccc(Cl)cc2)C(Cc2ccccc2)C1` (configuration not stated) was 800 nM.
Regarding `O=C(c1cc2ccccc2s1)N1CC(=O)N(Cc2ccc(Cl)cc2)C(Cc2ccccc2)C1` (configuration not stated), the IC50 is 2100 nM.
Turning to `Cc1ccc(CN2C(=O)CN(C(=O)c3cc4ccccc4o3)C[C@@H]2Cc2ccccc2)cc1`, the IC50 is 200 nM.

Still in this test, the particulars now being: a549.
Take `O=C(c1cc2ccccc2o1)N1CCN[C@@H](Cc2ccccc2)C1`: the half-maximal inhibitory concentration (IC50) result is on record as “Not Active”.
On the same count and under the same terms, the value for `Cc1ccc(CN2C(=O)CNC[C@@H]2Cc2ccccc2)cc1` was “Not Active”.

Tested on in another test: not listed separately; call rule not given here
As to the kind of experiment: Inhibition of JUNV envelope glycoprotein-mediated late endosomal pH-dependent membrane fusion by cell-cell fusion reporter assay. The conditions noted are these: Mammarenavirus juninense.
`COc1ccc(CN2C(=O)CN(C(=O)c3cc4ccccc4s3)CC2CCc2ccccc2)cc1` (configuration not stated) displayed an IC50 of 200 nM.
With `COc1ccc(CN2C(=O)CN(C(=O)c3cc4ccccc4o3)CC2CCc2ccccc2)cc1` (configuration not stated), the half-maximal inhibitory concentration (IC50) was determined as 200 nM.
The same measure, in the same setting: the same measure for `Cc1ccc(CN2C(=O)CN(C(=O)c3cc4ccccc4o3)CC2Cc2ccccc2)cc1` (racemic): 200 nM.

The record behind these values is ChEMBL document CHEMBL1151924, “Characterization of lassa virus cell entry inhibitors: determination of the active enantiomer by asymmetric synthesis” (Bioorg Med Chem Lett, 2009).
